“Also recorded” adds a separate entry of the source.
Key:
Assay type in all cases: physicochemical
[1] = Dynamic Vapor Sorption (DVS) hygroscopicity
Experimental: (§1) Differences in hygroscopicity (moisture uptake) of the various forms of a solid material provided a measure of their relative stability at increasing relative humidity. Moisture sorption isotherms of small samples were obtained using a DVS-1 system from Surface Measurement Systems (London, UK); this instrument is suitable for use with a few milligrams of sample, with an accuracy of 0.1 μg. The relative humidity was varied during sorption-desorption-sorption (45-95-0-45% RH) at a constant temperature of 25° C. Weight equilibration per step was set at dm/dt <0.0002 for a minimum of 1 hour or maximum of 6 hours. Afterwards the sample was measured by HT-XRPD.
The hygroscopicity was classified according to the European Pharmacopoeia Hygroscopicity classification.
as §1, with “(40-95-0-40%” for “(45-95-0-45%”
as §1, with “use with as little as a few” for “use with a few”
The hygroscopicity of Mao1 was determined by DVS. The powder was exposed to a RH profile consisting of sorption/desorption/sorption cycles (40-95-0-40% RH) performed at 25° C. The water vapor uptake gained during the sorption half-cycle was 0.75%.

[2] = Qualitative solubility determination in water at room temperature, with observation of gel formation
Experimental: The aqueous solubility of Oxa2 (starting material) was assessed by the qualitative solubility determination approach. To 5.4 mg of Oxa2, water was added in steps of 50 μl until the material was dissolved (Exp. ID: SAS1). Visual inspection by the naked eye was used to decide whether complete dissolution occurred.
After the addition of 7.5 ml water, Oxa2 was not dissolved in water at room temperature. The suspension was heated to 50° C. upon which complete dissolution occurred, as indicated by a clear solution.
The aqueous solubility of Pho1 (Exp. ID: TCP23) was assessed by the qualitative solubility determination approach. To 5.6 mg of Pho1, water was added in steps of 50 μl until the material was dissolved (Exp. ID: SAS2). Visual inspection by the naked eye was used to decide whether complete dissolution occurred. After the addition of 700 μl water, Pho1 was not dissolved in water at room temperature whereas after a subsequent addition of 200 μl water (900 μl in total), the material completely dissolved.
The solubility of Mao1 in water was determined by adding small aliquots of water to the material until it was dissolved.

[3] = Physical stability upon exposure to accelerated aging conditions (AAC, 40° C./75% RH), re-analysis by HT-XRPD
[4] = Physical stability of solid forms upon drying under vacuum, HT-XRPD
Experimental: (§2) Amorphous voruciclib oxalate salt, generated by freeze-drying, was used to start the thermocycling experiments. Suspensions were prepared in the selected solvent systems at RT. Subsequently, the mixtures were subjected to a temperature profile. After the temperature profile, the solids were separated from the solutions by centrifugation and were dried at ambient conditions and under deep vacuum before being harvested and analyzed by HT-XRPD. The liquid phases were also dried under deep vacuum before being harvested and analyzed by HT-XRPD. All solids were exposed to AAC (40° C./75% RH, 2 days).
(§3) After the temperature profile, the solids were separated from the liquids by centrifugation and the solid phase was dried at ambient conditions and under deep vacuum (5 mbar) before being harvested and analyzed by HT-XRPD. The liquid phases were dried under deep vacuum (5 mbar) and the recovered solids were analyzed by HT-XRPD. All solids were then exposed to accelerated aging conditions (40° C./75% RH, 2 days) followed by HT-XRPD re-analysis.
as §2, with “voruciclib phosphate” for “voruciclib oxalate”, “profile. Upon completion of” for “profile. After”, “dried under” for “dried at”
as §3, with “dried under” for “dried at”, “(5 mbar, 18 h)” for “(5 mbar)”
Amorphous voruciclib malonate salt, generated by freeze-drying, was used to start the thermocycling experiments. Suspensions were prepared in the selected solvent systems at RT and were subjected to three thermocycles between 50 and 5° C., followed by aging at 25° C. for 3 days. Upon completion of the aging time, the solids were separated from the liquids by centrifugation and they were dried at ambient conditions and under deep vacuum (5 mbar) before being harvested and analyzed by HT-XRPD.
After the temperature profile the solids were separated from the solution by centrifugation and they were dried at ambient conditions and under deep vacuum before being harvested and analyzed by HT-XRPD.

Water uptake ([1]; DVS, 25° C./80% RH): approximately 2.4%
Hygroscopicity classification ([1]; European Pharmacopoeia classification, water uptake at 25° C./80% RH): moderately hygroscopic
Solid form recovered after DVS analysis ([1]; XRPD after sorption-desorption-sorption cycle): Oxa2 was recovered
Solubility in water at room temperature ([2]; qualitative determination by adding aliquots of water, visual): < 100 µg/mL
Solid forms Ambient AAC ([3]; oxalate salt thermocycling, ambient-dried solids after AAC (40° C./75% RH, 2 days), HT-XRPD): Oxa2
Solid forms ML AAC ([3]; oxalate salt thermocycling, solids from evaporated mother liquor after AAC (40° C./75% RH, 2 days), HT-XRPD): Oxa2
Solid forms Vacuum AAC ([3]; oxalate salt thermocycling, vacuum-dried solids after AAC (40° C./75% RH, 2 days), HT-XRPD): Oxa2
Solid forms Vacuum ([4]; oxalate salt thermocycling solids, form after drying under deep vacuum (5 mbar, 18 h), HT-XRPD, label = ambient-dried form): Oxa2
SMILES: CN1CC[C@@H](c2c(O)cc(O)c3c(=O)cc(-c4ccc(C(F)(F)F)cc4Cl)oc23)[C@@H]1CO.O=C(O)C(=O)O [Oxa2]
Solubility classification in water ([2]; USP classification, room temperature): practically insoluble (solubility <0.1 mg/mL)
Behaviour upon addition of water (gel formation) ([2]; small amount of water added to solid): No indication of gel-formation was observed
Physical stability upon exposure to AAC ([3]; 40° C./75% RH, 2 days, HT-XRPD before and after): stable when exposed to advanced aging conditions; also recorded: physically stable upon exposure to AAC
Physical stability upon drying under deep/high vacuum ([4]; oxalate, phosphate, malonate forms, 5 mbar, 18 h): stable under vacuum conditions; also recorded: physically stable

From patent publication US12421216B2, “Voruciclib polymorphs and methods of making and using thereof” (MEI PHARMA, INC., priority 2019, dated 2025)
